Data as given in patent publication US20070092907A1, “Methods of screening compound probes” (priority 2005, published 2007).
“Also recorded” adds a separate entry of the source.

Legend:
rat glioma C6 cells = experiment: C6 cell uptake of phosphonium cations determined by MALDI-TOF-MS; format: cell-based; settings: for percent cell uptake: plateau at ~90 minute after incubation; for cell uptake / accumulation (in words): up to 90 min
Description: MALDI-TOF Mass Spectrometry: MALIDI-TOF-MS experiments were performed on a Perseptive Voyager-DE RP Biospectrometry instrument (Framingham, Mass.). On the MALDI-TOF-MS target plate, 1 μL each of sample solution and 1 μL of the matrix were mixed. […] For each analysis, the laser spot randomly hit the sample to generate an averaged MALDI-TOF-MS spectrum. Three spectra were produced for each sample, and analyte to internal standard response ratios were averaged.
C6 cells (0.5×10^6/50 μL) were incubated with 10 μL 100 μM stock phosphonium salts solution (5 μM final concentration) and 140 μL HEPES buffer from 10 to 90 min at room temperature. The cells were centrifuged (250×g) for three minutes and washed twice with cold PBS buffer at specified times. Cell pellets were then lysed with 150 μL cold spectral grade water, followed by freezing in dry ice. Right before the MALDI-TOF-MS analysis, the frozen cell solution was thawed and centrifuged at 12000×g for 5 min. An aliquot of 90 μL of cell lysate and 10 μL of 10 μM internal standard MeTPP were mixed together, and 1 μL of solution was subjected to MALDI-TOF-MS analysis. Samples collected from three independent cell lysates were prepared for each study and subjected for MALDI-TOF-MS analysis.
Then they were diluted with C6 cell lysate (0.5×10^6 cells per 150 μL, these cells were not incubated with any phosphonium compound prior to lysis) to make various concentrations of compound and stored at 0° C. One micromolar MeTPP in 10 μL volume, which was used as internal standard, and 10 μL phosphonium cations with concentrations ranging from 0.1 μM-1.5 μM were mixed together thoroughly. Subsequently, 1 μL aliquot and 1 μL matrix αCHCA were deposited on the target plate and dried for MALDI-TOF-MS analysis. Triplicate samples were prepared and analyzed.

C6 cells [1] = experiment: Mitochondrial and plasma membrane potential dependent uptake in C6 cells (CCCP, valinomycin, high K+ HEPES buffer), MALDI-TOF-MS; format: cell-based, rat; settings: for decrease in uptake on depolarization of the plasma membrane (high K+ vs low K+ buffer): 90 min exposure time; for effect of CCCP on uptake: CCCP at 1 μM concentration; for nature of uptake (membrane potential dependence): C6 cells, CCCP, valinomycin, high K+ buffer
Description: K^+-ionophore valinomycin was dissolved in ethanol and also diluted with low K^+ buffer. Final concentrations of ethanol and DMSO were below 0.1%. Varying concentrations of CCCP and valinomycin were added to the 0.5×10^6 cells in low K^+ HEPES buffer 30 min prior to the start of the experiment. […] The viability and the integrity of the cells after treatment with inhibitors and high K^+ buffer were examined using Trypan blue.

C6 cells [2] = experiment: C6 cell uptake of 3H-TPP by scintillation counting; format: cell-based, rat; settings: 5 μM, 25° C., 90 min
Description: Cell Uptake of ^3H-tetraphenylphosphonium (^3H-TPP): C6 cell uptake of ^3H-TPP was also performed for direct comparison with cell uptakes of TPP and FTPP determined through MALDI-TOF-MS. Briefly, 0.5×10^6 cells were incubated with 5 μM ^3H-TPP [^3H-TPP was spiked with TPP to make a final concentration of 12.21 GBq/mmol (0.33 Ci/mmol)] from 10 to 90 min in a 200 μL HEPES buffer at room temperature. Cell lysate was prepared using the same procedure as described in the Cell Uptake Studies of Phosphonium Cations section, and the radioactivity of cell lysate was counted. Triplicate samples were obtained for all uptake studies. Data were expressed as the accumulation of the amount of probe in each cell or percent cell uptake (fmols/cell, % cell uptake). ^3H analyses were performed with a Beckman LS-6500 liquid scintillation counter with Biosafe II scintillation fluid (Research Products International, Mount prospect, Ill.). The attenuation and quenching effects resulting from the cell lysate used in this experiment were determined to be negligible, and the disintegration per minute (dpm) was obtained by correcting for background activity and efficiency (69.3% for ^3H).

BrCCCC[P+](c1ccccc1)(c1ccccc1)c1ccccc1.[Br-] [BrTPP, (4-bromobutyl) triphenyl-phosphine bromide] was tested, and the “uptake compared with tetraphenylphosphonium analogs (TPP and FTPP)” value (rat glioma C6 cells; 5 μM, C6 cells) was “much lower uptake”.

With Fc1ccc(C[P+](c2ccccc2)(c2ccccc2)c2ccccc2)cc1.[I-] [FBnTP, 4-fluorobenzyl-triphenylphosphonium iodide] the “decrease in uptake on depolarization of the plasma membrane (high K+ vs low K+ buffer)” value (“decrease in uptake on depolarization” below) (C6 cells [1]; 5 μM probe) was 1.5 fold, the “effect of CCCP on uptake” value (C6 cells [1]; 5 μM probe) was “can also be inhibited” and the “nature of uptake (membrane potential dependence)” value (“nature of uptake” below) (C6 cells [1]) was “electrogenic and driven by the plasma and mitochondrial membrane potentials”. The “uptake compared with tetraphenylphosphonium analogs (TPP and FTPP)” value (rat glioma C6 cells; 5 μM, C6 cells) was “much lower uptake”.

In the case of C[P+](c1ccccc1)(c1ccccc1)c1ccccc1.[Br-] [MeTPP, methyltriphenyl phosphonium bromide, reference compound], the percent cell uptake (rat glioma C6 cells; 5 μM, C6 cells) was 1.06%.

Fc1ccc([P+](c2ccccc2)(c2ccccc2)c2ccccc2)cc1 [FTPP, 4-Fluorophenyltriphenyl phosphonium] was tested, and the “normalized uptake in presence of valinomycin” value (C6 cells [1]; 5 μM probe, 10 μM valinomycin, low K+ HEPES buffer, one hour incubation) was “about 72.8±3.6%”, the “normalized uptake in presence of CCCP” value (C6 cells [1]; 5 μM probe, 50 μM CCCP, low K+ HEPES buffer, one hour incubation) was “about 27.3±2.3%” and the “decrease in uptake on depolarization” value (C6 cells [1]; 5 μM probe) was 3.5 fold. The “effect of CCCP on uptake” value (C6 cells [1]; 5 μM probe) was “significantly inhibited”, the “effect of valinomycin on uptake” value (C6 cells [1]; 5 μM probe, valinomycin at 1 μM concentration) was “significantly inhibited” and the “nature of uptake” value (C6 cells [1]) was “electrogenic and driven by the plasma and mitochondrial membrane potentials”. The “accumulation relative to MeTPP” value (rat glioma C6 cells; 5 μM, C6 cell culture) was 8 times, the “cell uptake relative to that of TPP” value (rat glioma C6 cells; 5 μM, C6 cells) was “over 80%” and the percent cell uptake (rat glioma C6 cells; 5 μM, C6 cells) was 9.33%. For the same molecule, the “cell uptake / accumulation (in words)” value (rat glioma C6 cells; 5 μM, C6 cells) was “good cell uptake; also recorded: higher C6 cell uptake than both F4TPP and FBnTP”.

CCCC[P+](c1ccccc1)(c1ccccc1)c1ccccc1.[Cl-] [BuTPP, butyltriphenylphosphonium chloride] was tested, and the “uptake compared with tetraphenylphosphonium analogs (TPP and FTPP)” value (rat glioma C6 cells; 5 μM, C6 cells) was “much lower uptake”.

With Fc1ccc([P+](c2ccc(F)cc2)(c2ccc(F)cc2)c2ccc(F)cc2)cc1.[I-] [F4TPP, Tetra-4-fluorophenylphosphonium iodide] the “decrease in uptake on depolarization” value (C6 cells [1]; 5 μM probe) was 3.0 fold, the “effect of CCCP on uptake” value (C6 cells [1]; 5 μM probe) was “can also be inhibited” and the “nature of uptake” value (C6 cells [1]) was “electrogenic and driven by the plasma and mitochondrial membrane potentials”.

With O=C(O)CCCC[P+](c1ccccc1)(c1ccccc1)c1ccccc1.[Br-] [CoTPP, (4-carboxybutyl)triphenyl-phosphonium bromide] the “cell uptake / accumulation (in words)” value (rat glioma C6 cells; 5 μM, C6 cells) was “either does not accumulate or accumulates minimally” and the “detection of compound in cell lysate by MALDI-TOF-MS” value (rat glioma C6 cells; C6 cell lysate after incubation with compound) was “could not be identified”.

With CCCC[P+](CCCC)(CCCC)CCCC.[Br-] [TBuP, tetrabutylphosphonium bromide] the “decreased cellular accumulation compared to TPP” value (rat glioma C6 cells; 5 μM, C6 cells) was about 18 fold, the “cell uptake / accumulation (in words)” value (rat glioma C6 cells; 5 μM, C6 cells) was “lower cell uptake” and the “cell uptake / accumulation (in words)” value (rat glioma C6 cells; 5 μM, C6 cells, listed as TBuPP) was “very low cell accumulaiton”.

For ^3H-tetraphenylphosphonium [^3H-TPP], the “time course of uptake by scintillation counting compared with MALDI-TOF-MS of TPP” value (C6 cells [2]) was “almost identical pattern and the same levels of uptake”.

With Cl.[Cl-].c1ccc([P+](Cc2ccccn2)(c2ccccc2)c2ccccc2)cc1 [PyTPP, triphenyl(2-pyridylmethyl)phosphonium chloride hydrochloride] the “uptake compared with tetraphenylphosphonium analogs (TPP and FTPP)” value (rat glioma C6 cells; 5 μM, C6 cells) was “much lower uptake”.

With [Br-].c1ccc([P+](c2ccccc2)(c2ccccc2)c2ccccc2)cc1 [TPP, tetraphenylphosphonium bromide, reference compound] the “amount accumulated per cell” value (rat glioma C6 cells; 5 μM, 10 mins post incubation) was 0.11 fmol TPP per cell, the “incubation time to maximum / steady-state uptake” value (rat glioma C6 cells; 5 μM, C6 cells) was 60 min and the percent cell uptake (rat glioma C6 cells; 5 μM, C6 cells) was 11.44%.
